Test results published in patent US10626140B2, “Prodrugs of 17β-HSD1-inhibitors” (FORENDO PHARMA LTD, priority 2014, dated 2020).
Entries after “also recorded” stand apart in the source; their conditions may differ. Where two headings read alike, the source gives them in different places.

How the values were obtained:
[1] = biological target: T1, recombinant human 17β-HSD1 (Homo sapiens, UniProt P14061); assay: Inhibition of recombinant human 17β-HSD1; type: biochemical; details: inhibitor 1 μM; 30 nM estrone, 1 mM NADPH, 30 min at RT; read-out: 17β-HDS1 Inhibition % at 1 μM
T1 construct: made in house; host or cells: Sd9 (Sf9) insect cells, baculovirus (Bac to Bac Expression System)
T1 sequence (P14061 1-328): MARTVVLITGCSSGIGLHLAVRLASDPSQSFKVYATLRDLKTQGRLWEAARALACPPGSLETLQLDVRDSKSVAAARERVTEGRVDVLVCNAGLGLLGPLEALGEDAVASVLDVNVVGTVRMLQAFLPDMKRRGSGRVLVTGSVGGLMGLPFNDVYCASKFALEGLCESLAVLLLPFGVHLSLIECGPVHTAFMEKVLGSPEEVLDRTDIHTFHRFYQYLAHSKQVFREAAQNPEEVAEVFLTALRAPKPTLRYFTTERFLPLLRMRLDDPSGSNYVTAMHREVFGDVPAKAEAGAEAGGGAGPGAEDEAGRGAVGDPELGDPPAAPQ
Procedure: 17β-HSD1 Production and Isolation:
Recombinant baculovirus was generated by the “Bac to Bac Expression System” (Invitrogen). Recombinant bacmid was transfected to Sd9 insect cells using “Cellfectin Reagent” (Invitrogen). 60 h later cells were harvested; the microsomal fraction was isolated as described by Puranen, T. J., Poutanen, M. H., Peltoketo, H. E., Vihko, P. T. and Vihko, R. K. (1994) Site-directed mutagenesis of the putative active site of human 17β-hydroxysteroid dehydrogenase type 1. Biochem. J. 304: 289-293. Aliquots were stored frozen until determination of enzymatic activity.
Assay—Inhibition of Recombinant Human 17β-HSD1:
Protein homogenate (0.1 μg/ml) was incubated in 20 mM KH2PO4 pH 7.4 with 30 nM estrone (including 800 000 cpm/ml of ^3H-estrone) and 1 mM NADPH for 30 min at RT, in the presence of the potential inhibitor at concentrations 1 μM or 0.1 μM. Inhibitor stock solutions were prepared in DMSO. Final concentration of DMSO was adjusted to 1% in all samples. The enzyme reaction was stopped by addition of 10% trichloroacetic acid (final concentration). Samples were centrifuged in a microtiter plate at 4000 rpm for 10 min. Supernatants were applied to reverse phase HPLC on a Waters Symmetry C18 column, equipped with a Waters Sentry Guard column. Isocratic HPLC runs were performed at RT at a flow rate of 1 ml/min in acetonitrile:water 48:52 as running solvent. Radioactivity was monitored in the eluate by a Packard Flow Scintillation Analyzer. Total radioactivity for estrone and estradiol were determined in each sample and percent conversion of estrone to estradiol was calculated according to the following formula:
(§1) [formula] Percent inhibition was calculated flowingly: % inhibition=100−% conversion

[2] = Metabolic stability assay; type: in vitro ADME; details: human liver homogenate or microsomes
Procedure: The in vitro metabolic stability of the parent compounds was determined for exemplified compounds using human liver microsome and homogenate incubations. The incubation time points used with or without appropriate cofactors were 0 min and 60 min. Samples were collected at both time points and substrates were detected using LC/PDA/TOF-MS. In vitro metabolic stability (% remaining after 60 min in human liver homogenate or microsomes) of the compounds were calculated and the results are summarized in Table 4.

Aqueous solubility test = type: physicochemical; details: for solubility: thermodynamic from solid
Procedure: The pH of the mixtures was held constant during the study. Excess amounts or a known amount of each component are added to 1 or 0.5 ml of buffer solution and the mixtures were stirred at rt for 48 hours or less, filtered (0.45 um Millipore) and analyzed by HPLC.

[3] = biological target: T2, recombinant human 17β-HSD2 (Homo sapiens, UniProt P37059); assay: Inhibition of recombinant human 17β-HSD2; type: biochemical; details: inhibitor 1 μM; 50 nM estradiol, 1 mM NADH, 30 min at RT
T2 construct: made in house; host or cells: Sd9 (Sf9) insect cells, baculovirus (Bac to Bac Expression System)
T2 sequence (P37059 1-387): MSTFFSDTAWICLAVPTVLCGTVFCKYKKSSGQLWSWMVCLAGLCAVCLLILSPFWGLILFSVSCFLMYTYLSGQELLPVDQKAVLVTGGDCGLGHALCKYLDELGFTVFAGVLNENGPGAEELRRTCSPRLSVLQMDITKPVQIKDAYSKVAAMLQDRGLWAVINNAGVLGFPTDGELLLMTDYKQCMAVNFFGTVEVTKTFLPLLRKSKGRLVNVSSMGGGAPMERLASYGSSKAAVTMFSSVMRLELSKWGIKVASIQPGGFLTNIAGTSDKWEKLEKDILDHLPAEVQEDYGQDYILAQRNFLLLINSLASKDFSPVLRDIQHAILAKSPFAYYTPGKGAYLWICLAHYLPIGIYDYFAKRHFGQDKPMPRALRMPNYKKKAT
Procedure: 17β-HSD2 Production and Isolation:
Similarly to 17β-HSD1 the Recombinant baculovirus was generated by the “Bac to Bac Expression System” (Invitrogen). Recombinant bacmid was transfected to Sd9 insect cells using “Cellfectin Reagent” (Invitrogen). 60 h later cells were harvested and supernatant were fractionated by the following protocol: • cells were dissolved into 40 ml of A-buffer (40 mM TRIS, pH8.0, 20% glycerol, 20 μM NAD, 0.4 mM PMSF, 150 mM NaCl, 0.5% dodecyl-β-maltoside+protease inhibitor cocktail) • cells were sonicated • lysate was incubated on ice for 15 min • lysate was centrifuged 5000 rpm 15 min, +4° C. • centrifugation of the supernatant 180 000 g 30 min, +4° C. • pellet was dissolved into 8 ml of A-buffer • not resuspended material was removed by centrifugation 5000 rpm 15 min, +4° C. • the clear supernatant was divided into 100 μl aliquots and were stored frozen until determination of enzymatic activity.
The amount of 17β-HSD2 was analysed by immunoblotting and total protein concentration of each extract batch was determined.
Assay—Inhibition of Recombinant Human 17β-HSD2:
Protein homogenate (4 μg/ml) was incubated in 20 mM KH2PO4 pH 8.5 with 50 nM estradiol (including 800 000 cpm/ml of ^3H-estradiol) and 1 mM […] for 30 min at RT, in the presence of the potential inhibitor at concentrations 1 μM or 0.1 μM. Inhibitor stock solutions were prepared in DMSO. Final concentration of DMSO was adjusted to 1% in all samples. The enzyme reaction was stopped by addition of 10% trichloroacetic acid (final concentration). Samples were centrifuged in a microtiter plate at 4000 rpm for 10 min. Supernatants were applied to reverse phase HPLC on a Waters Symmetry C18 column, equipped with a Waters Sentry Guard column. […] Radioactivity was monitored in the eluate by a Packard Flow Scintillation Analyzer. Total radioactivity for estrone and estradiol were determined in each sample and percent conversion of estradiol to estrone was calculated according to the following formula:
as §1

| SMILES | inhibition at 1 µM [1] | In vitro metabolic stability, % remaining after 60 min [2] | inhibition at 1 µM [3] | aqueous solubility (in words) (Aqueous solubility test; Table 5) | also measured |
| --- | --- | --- | --- | --- | --- |
| CO/N=C1\C[C@@H](CCC(=O)Nc2ncc(C)s2)C2C3CCc4cc(O)c(C(C)(C)C)cc4C3CC[C@]12C (stereo partly drawn) [VIV-1, 3-{(13S,15R)-2-tert-Butyl-3-hydroxy-17-[(E)-methoxyimino]-13-methyl-7,8,9,11,12,13,14,15,16,17-decahydro-6H-cyclopenta[a]phenanthren-15-yl}-N-(5-methylthiazol-2-yl) propanamide] | 86% | 100% | 14% |  | solubility (Aqueous solubility test; pH 7.4, aqueous buffer): < 0.52 µg/mL |
| Cc1cnc(NC(=O)CC[C@@H]2CC(=O)[C@@]3(C)CCC4c5ccc(O)cc5CCC4C23)s1 (stereo partly drawn) [VII, reference compound] |  | 13% |  |  |  |
| CO/N=C1\C[C@@H](CCC(=O)Nc2ncc(C)s2)C2C3CCc4cc(OCOP(=O)(O)O)c(C(C)(C)C)cc4C3CC[C@]12C (stereo partly drawn) [Compound 15, (((13S,15R)-2-(tert-butyl)-17[(E)-methoxyimino]-13-methyl-15-(3-((5-methylthiazol-2-yl)amino)-3-oxopropyl)-7,8,9,11,12,13,14,15,16,17-decahydro-6H-cyclopenta[a]phenanthren-3-yl)oxy)methyl dihydrogen phosphate] |  |  |  |  | aqueous solubility (in words) (Aqueous solubility test): significant aqueous solubility |
| CO/N=C1\C[C@@H](CCC(=O)Nc2ncc(C)s2)C2C3CCc4cc(OP(=O)([O-])[O-])c(C(C)(C)C)cc4C3CC[C@]12C.[Na+].[Na+] (stereo partly drawn) [Compound 1a] |  |  |  |  | aqueous solubility (in words) (Aqueous solubility test; Table 5, disodium salt): improved aqueous solubility; also recorded: significant aqueous solubility; Aqueous solubility, buffer at pH 7.4 (Aqueous solubility test; buffer at pH 7.4, rt): over 32 mg/ml |
| CCO/N=C1\C[C@@H](CCC(=O)Nc2ncc(C)s2)C2C3CCc4cc(O)c(C(C)(C)C)cc4C3CC[C@]12C (stereo partly drawn) [VIV-4, 3-{(13S,15R)-2-tert-Butyl-17-[(E)-ethoxyimino]-3-hydroxyl-13-methyl-7,8,9,11,12,13,14,15,16,17-decahydro-6H-cyclopenta[a]phenanthren-15-yl}-N-(5-methylthiazol-2-yl)propanamide] | 89% |  | 8% |  |  |
| CO/N=C1\C[C@@H](CCC(=O)Nc2ncc(C)s2)C2C3CCc4cc(OCOP(=O)(O)O)c(C(C)(C)C)cc4C3CC[C@]12C.[Na].[Na] (stereo partly drawn) [Compound 15a, (((13S,15R)-2-(tert-butyl)-17[(E)-methoxyimino]-13-methyl-15-(3-((5-methylthiazol-2-yl)amino)-3-oxopropyl)-7,8,9,11,12,13,14,15,16,17-decahydro-6H-cyclopenta[a]phenanthren-3-yl)oxy)methyl dihydrogen phosphate disodium salt] |  |  |  | improved aqueous solubility | solubility (Aqueous solubility test; buffer solution, aqueous buffer, buffer at pH 7.4, rt, read-out: Aqueous solubility, buffer at pH 7.4): > 30000 µg/mL |
| Cc1cnc(NC(=O)CC[C@@H]2C/C(=N\O)[C@@]3(C)CCC4c5cc(C(C)(C)C)c(O)cc5CCC4C23)s1 (stereo partly drawn) [VIV-3, 3-{(13S,15R)-2-tert-Butyl-3-hydroxy-17-[(E)-hydroxyimino]-13-methyl-7,8,9,11,12,13,14,15,16,17-decahydro-6H-cyclopenta[a]phenanthren-15-yl}-N-(5-methylthiazol-2-yl)propanamide] | 95% | 100% | 41% |  |  |
| CO/N=C1\C[C@@H](CCC(=O)Nc2ncc(C)s2)C2C3CCc4cc(OP(=O)(O)O)c(C(C)(C)C)cc4C3CC[C@]12C (stereo partly drawn) [Compound 1] |  |  |  | improved aqueous solubility |  |
| CO/N=C1\C[C@@H](CCC(=O)Nc2ncc(C)s2)C2C3CCc4cc(OC(=O)CN(C)C)c(C(C)(C)C)cc4C3CC[C@]12C.Cl (stereo partly drawn) [Compound 4a, (13S,15R)-2-(tert-butyl)-17[(E)-methoxyimino]-13-methyl-15-(3-((5-methylthiazol-2-yl)amino)-3-oxopropyl)-7,8,9,11,12,13,14,15,16,17-decahydro-6H-cyclopenta[a]phenanthren-3-yl dimethylglycinate hydrochloride] |  |  |  | improved aqueous solubility | solubility (Aqueous solubility test; aqueous buffer, buffer at pH 7.4, rt, read-out: Aqueous solubility, buffer at pH 7.4): 7.99 µg/mL |
